Test results from patent publication US9889087B2, “Intranasal delivery of β2-adrenergic receptor agonists for improving cognition in humans with down syndrome and compositions therefor” (priority 2014, dated 2018).
≈ marks a conversion by molar mass, not a printed value. Where two headings read alike, the source gives them in different places.

What was measured:
Ts65Dn and 2N mice [1] = conditions: intranasal 2 mg per kg for 5 days
Source text: Mice were acclimated to handling for a period of two weeks before the onset of intranasal dosing. Acclimation helped to ensure a correct body position for maximum effectiveness of awake intranasal drug delivery. In addition, acclimation prevented the occurrence of anxiety reaction after dosing. Mice spent about 2-3 days on each of nine steps before progressing to the next step, depending upon the animal's comfort to handling. The mouse's stress level was used as a measure of progress. To do this, the mouse's movements, the amount and frequency of urination, defecation, trembling and biting were assessed.
7) The mouse was placed back on top of his cage for 2 min. and the entire process was repeated starting 2 min. after delivery of the first drop. All together the mouse received four drops of up to 6 μl each totaling a maximum volume of 24 μl of solution.
The training began on the 4th day of intranasal dosing.
The testing day was done on the 5th and final day of dosing.
The first trial for each mouse was done 3 hours post-intranasal dose.
6) The number of incorrect arm entries was quantified. Entries into the goal arm were not counted as errors, even if the platform was not located. An entry was considered to occur when all four legs of the mouse had entered the alley completely and the mouse was parallel to the alley walls. […]

Ts65Dn and 2N mice [2] = system: Ts65Dn and 2N mice
Protocol: b) Fear Conditioning. […] The fear conditioning tests were done using four FreezeScan chambers (Clever Sys) on days 4 and 5 after the start of the open field-testing. […] Four hours later, the mice were placed in the fear-conditioning chamber and their baseline activity was recorded for three minutes. At the end of this period, each mouse was exposed to five shocks (2 seconds each, 0.5 mA) with inter-trial intervals of 80 seconds. Twenty-four hours later, the mice were injected again, similar to the Training Day, and returned to the same fear-conditioning chamber for five minutes and their activity was recorded. Freezing was defined as a lack of movement for 3 frames.

Ts65Dn and 2N mice [3] = assay: Cardiovascular and respiratory system monitoring (MouseOx vital signs); type: in vivo, mouse; conditions: 2N and Ts65Dn mice
Protocol: Cardiovascular and Respiratory System Monitoring. […] The monitor was attached to a collar clip with an LED sensor to enable recordings in free-moving mice. To minimize stress before recording, the collar clip was attached to each animal. After five minutes, heart rate, respiratory rate, and oxygen saturation were recorded using MOUSEOX® 6.3.13 for 10 minutes.

physchem = conditions: water
[4] = in vivo; cited from earlier work
Ts65Dn mice = conditions: cited from earlier work; for contextual learning: earlier studies
Ts65Dn and 2N mice [5] = assay: BrdU cell proliferation count in the DG; type: in vivo, mouse; conditions: nadolol alone or nadolol + formoterol
Protocol: To identify proliferating cells, we used 5-bromo-2′-deoxyuridine (BrdU, Sigma). It was dissolved in PBS, filtered, and kept at 4° C. till use. After 15 days of treatment, each mouse was injected IP daily (50 mg/kg) with BrdU solution for 5 days. Thereafter, on day 21, all mice were anesthetized and transcardially perfused with ice-cold saline. The entire brain was immediately removed and the two hemispheres were separated. The left hemisphere was fixed overnight, cut, and stored. […] This was followed by incubation of sections in ABC.
Stereo-Investigator (MBF) was used to quantify the total number of BrdU-positive cells in the entire septo-temporal extent of DG. Following the outlining of the DG area at 4×, each positive profile was identified using a 100× oil objective. […] A Nanozoomer system (Hamamatsu 2.0 RS) was used to capture images of the entire slide in each case. High magnification images were captured using the Nanozoomer and stored.

COc1ccc(CC(C)NCC(O)c2ccc(O)c(NC=O)c2)cc1 (stereo not shown) [formoterol]
spatial learning (Ts65Dn and 2N mice [1]): significant improvement | contextual learning (Ts65Dn and 2N mice [2]; 2N mice): improvement | contextual learning (Ts65Dn and 2N mice [2]; Ts65Dn mice, 6 months, vs nadolol only): significant improvement | freezing behavior within first five minutes in context (Ts65Dn and 2N mice [2]; Ts65Dn mice, vs nadolol only): significant increase | effect on oxygen saturation (Ts65Dn and 2N mice [3]; formoterol together with nadolol): no significant effects | effect on heart rate (Ts65Dn and 2N mice [3]; ANOVA treatment effect): No significant effects | effect on respiratory rate (Ts65Dn and 2N mice [3]; ANOVA treatment effect): No significant effects | solubility (physchem): ~17.2 mg/mL (≈ 49.9 mM) | crossing of the blood brain barrier [4]: cross the blood brain barrier

O=C(NCCNCC(O)COc1ccc(O)cc1)N1CCOCC1 (stereo not shown) [xamoterol]
contextual learning (Ts65Dn mice): significantly improve | spatial learning and/or hyperactivity (Ts65Dn mice; later studies): did not improve

N[C@H](C(=O)O)[C@H](O)c1ccc(O)c(O)c1 [L-DOPS, L-threo-3,4-dihydroxyphenylserine]
contextual learning (Ts65Dn mice): restored

CC(C)(C)NCC(O)COc1cccc2c1CC(O)C(O)C2 (stereo not shown) [nadolol]
total number of BrdU-positive profiles in the DG (Ts65Dn and 2N mice [5]): 3,161.930±900
